Results as given in patent publication US9605163B2, “Aminoalcohol compounds and their use as zero or low VOC additives for paints and coatings” (ANGUS CHEMICAL COMPANY, priority 2011, dated 2017).
One block for each compound: values may come before it.

Legend:
[1] = pKa determination by titration with H2SO4 in water; assay type: physicochemical; conditions: 0.5 N H2SO4, water as solvent
Protocol: pKa. pKa values are determined by titration using 0.5 NH2SO4 as titrant with water as solvent. Duplicate analyses are performed.

[2] = VOC according to ASTM D6886-rev gas chromatography method; assay type: physicochemical; conditions: for Percent VOC measured on the crude amine sample: ASTM D6886-rev, value attributed to impurities / residual amine; for VOC classification according to ASTM D6886-rev protocol: pure compound
Protocol: “Zero or low VOC compound” and like terms mean that a particular aminoalcohol compound of the invention passes the criteria set forth by one or more gas chromatography methods, such as ASTM D6886-rev method, ISO 11890 or GB 18581. ASTM D6886-rev method is preferred.
VOC. VOC properties are tested according to the ASTM D6886-rev method.

[3] = Freeze-thaw cycles of paint samples, Krebs Stormer viscosity; conditions: for Initial Viscosity (KU): paint of Table 5, additive post-added at 2 wt %, before freeze-thaw
Protocol: The paint formulations are prepared using F/T agent 1 as shown by structures below. The octanol water partition coefficient is calculated using the method of Moriguchi et al., Chem. Pharm. Bull. 40(1), 127-130 (1992). The calculated octanol-water partition coefficient for F/T-1 is 0.69. […] Paint samples are frozen at −18° C. for 17 hours and then thawed at 25° C. for 7 hours. This constitutes 1 complete freeze-thaw cycle. Viscosities are measured after each freeze-thaw cycle using a Krebs Stormer Viscometer from Sheen at room temperature. The viscosity is measured in Krebs unit (KU). The results of freeze-thaw cycles on paint samples that contain a zero-VOC compound of the invention as a post-add are listed in the Table 6. The post-add compound is mixed at 2 wt % in the paint samples. The same paint formulation is used in preparing all the samples. The paint sample without any post-add is designated as “Blank.”
The KU values below 150 as reported in Table 9 are considered acceptable, and all the values (other than that for the Blank) reported are considered very acceptable.

[4] = additive 2 wt %, cycle = −18° C. 17 hours, 25° C. 7 hours

- pKa [1]: 8
SMILES: CC(O)CNC(CO)(CO)CO (stereo not shown) [TA-1PO, 2-(hydroxymethyl)-2-((2-hydroxypropyl)amino)propane-1,3-diol]

SMILES: OCCN(CCO)C1CCCCC1O (stereo not shown) [DEA-CyHO, 2,2′-((2-hydroxycyclohexyl)azanediyl)diethanol]
- pKa [1]: 8.6

- Percent VOC measured on the crude amine sample [2]: 3.6%
- VOC classification according to ASTM D6886-rev protocol [2]: zero VOC
- pKa [1]: 9
SMILES: CC(C)(C)CC(C)(C)N(CC(O)CO)CC(O)CO (stereo not shown) [3,3′-((2,4,4-trimethylpentan-2-yl)azanediyl)bis(propane-1,2-diol)]

SMILES: OCCOCCO [Diethylene Glycol, diethylene glycol, reference compound]
- Viscosity after Freeze-Thaw cycles (KU), 5th cycle [3, 4]: 98 KU
- Initial Viscosity (KU) [3]: 91.0 KU

- Percent VOC measured on the crude amine sample [2]: 8.7%
- VOC classification according to ASTM D6886-rev protocol [2]: zero VOC
- pKa [1]: 7.8
SMILES: CC(C)OCC(O)CNC(CO)(CO)CO (stereo not shown) [TA-IPM, 2-((2-hydroxy-3-isopropoxypropyl)amino)-2-(hydroxymethyl)propane-1,3-diol]

- Viscosity after Freeze-Thaw cycles (KU), 1st cycle [3, 4]: 92.6 KU
- Viscosity after Freeze-Thaw cycles (KU), 2nd cycle [3, 4]: 100.8 KU
- Viscosity after Freeze-Thaw cycles (KU), 3rd cycle [3, 4]: 103.1 KU
- Viscosity after Freeze-Thaw cycles (KU), 4th cycle [3, 4]: 104.2 KU
- Viscosity after Freeze-Thaw cycles (KU), 5th cycle [3, 4]: 105.3 KU
- Initial Viscosity (KU) [3]: 85.2 KU
SMILES: CC(C)(C)CC(C)(C)N(CC(O)CO)CC(O)CO (stereo not shown) [F/T Agent 1]
- Freeze-thaw survival of paint samples ([3]; additive as post-add): survive five freeze-thaw cycles

- pKa [1]: 9.1
SMILES: CCC(O)CN(CC(O)CC)C(C)(C)CO (stereo not shown) [AMP-2BO, 1,1′-((1-hydroxy-2-methylpropan-2-yl)azanediyl)bis(butan-2-ol)]

- pKa [1]: 8.7
SMILES: CCC(O)CNC(CC)(CO)CO (stereo not shown) [AEPD-1BO, 2-ethyl-2-((2-hydroxybutyl)amino)propane-1,3-diol]
